Patent US20100129434A1, “COMPOSITIONS AND METHODS FOR THE TREATMENT OF MUCORMYCOSIS AND OTHER FUNGAL DISEASES” (priority 2006, published 2010)
Converted amounts (≈) assume the structure as drawn. Like-named read-outs stand apart in the source and are kept apart here.

Tests used:
R. oryzae = assay: Deferasirox susceptibility testing (MIC/MFC), R. oryzae isolates; type: cell-based, Rhizopus oryzae; settings: Rhizopus arrhizus; for MIC90: R. oryzae MIC90/MFC90
Experimental: (§1) Minimum inhibitory concentration (MIC) and minimum fungicidal concentration (MFC) were determined for deferasirox by the method of Espinel-Ingroff using R. oryzae spores starved for iron (Espinel-Ingroff, (2001), supra). Cidality was defined as a <4-fold difference between MIC and MFC.
(§2) We next determined the deferasirox susceptibilities of multiple clinical isolates of Mucorales (Table 3). The MIC9OS of deferasirox against Mucor, non-oryzae Rhizopus spp., and R. oryzae were 3.12 to 6.25 μg/ml. MFCs were similar to MICs, and deferasirox was cidal for 28/29 (97%) of isolates. Of note, slight growth was seen within the first twelve hours even at extremely high concentrations of deferasirox. […] Furthermore, the MICs and MFCs of deferasirox against these isolates were well below clinically achievable peak (˜38 μg/ml) and trough serum levels (˜17 μg/ml) of the drug at steady state when administered at the FDA-approved starting dose (20 mg/kg/d).

Mucorales = assay: Deferasirox susceptibilities of multiple clinical isolates of Mucorales (summary); type: cell-based
Experimental: as §1, §2

[1] = NRRL6059, 24 h, R. oryzae type I NRRL 6059, 24 h
[2] = NRRL6059, 48 h, R. oryzae type I NRRL 6059, 48 h
[3] = NRRL21409, 48 h, R. oryzae type I NRRL21409, 48 h

SMILES: O=C(O)c1ccc(-n2nc(-c3ccccc3O)nc2-c2ccccc2O)cc1 [Deferasirox, 4-[3,5-Bis(2-hydroxyphenyl)-1H-1,2,4-triazol-1-yl]-benzoic acid]
- MIC (R. oryzae; 48 h, R. oryzae 729-02, 48 h, read-out: MIC): 6.25 µg/mL (≈ 16.7 µM)
- MFC (R. oryzae; 48 h, R. oryzae HUMC 02, 48 h, read-out: MFC): 1.56 µg/mL (≈ 4.18 µM)
- MIC (R. oryzae; 48 h, R. oryzae HUMC 02, 48 h, read-out: MIC): 1.56 µg/mL (≈ 4.18 µM)
- MFC (R. oryzae; 48 h, R. oryzae pyr17 pyrG−/−, 48 h, read-out: MFC): 0.78 µg/mL (≈ 2.09 µM)
- MIC (R. oryzae; 48 h, R. oryzae pyr17 pyrG−/−, 48 h, read-out: MIC): 0.78 µg/mL (≈ 2.09 µM)
- MFC (R. oryzae; 48 h, R. orzae type II 10206, 48 h, read-out: MFC): 3.12 µg/mL (≈ 8.36 µM)
- MIC (R. oryzae; 48 h, R. orzae type II 10206, 48 h, read-out: MIC): 3.12 µg/mL (≈ 8.36 µM)
- MFC (R. oryzae; [1]): 6.25 µg/mL (≈ 16.7 µM)
- MIC (R. oryzae; [1]): 6.15 µg/mL (≈ 16.5 µM)
- MFC (R. oryzae; [2]): 6.25 µg/mL (≈ 16.7 µM)
- MIC (R. oryzae; [2]): 1.56 µg/mL (≈ 4.18 µM)
- MFC (R. oryzae; NRRL10206, 24 h, R. oryzae type I NRRL 10206, 24 h, read-out: MFC): 3.12 µg/mL (≈ 8.36 µM)
- MIC (R. oryzae; NRRL10206, 24 h, R. oryzae type I NRRL 10206, 24 h, read-out: MIC): 3.12 µg/mL (≈ 8.36 µM)
- MFC (R. oryzae; NRRL10206, 48 h, R. oryzae type I NRRL 10206, 48 h, read-out: MFC): 3.12 µg/mL (≈ 8.36 µM)
- MIC (R. oryzae; NRRL10206, 48 h, R. oryzae type I NRRL 10206, 48 h, read-out: MIC): 3.12 µg/mL (≈ 8.36 µM)
- MFC (R. oryzae; NRRL11823, 24 h, R. oryzae type I NRRL11823, 24 h, read-out: MFC): 3.12 µg/mL (≈ 8.36 µM)
- MIC (R. oryzae; NRRL11823, 24 h, R. oryzae type I NRRL11823, 24 h, read-out: MIC): 3.12 µg/mL (≈ 8.36 µM)
- MFC (R. oryzae; NRRL11823, 48 h, R. oryzae type I NRRL11823, 48 h, read-out: MFC): 6.25 µg/mL (≈ 16.7 µM)
- MIC (R. oryzae; NRRL11823, 48 h, R. oryzae type I NRRL11823, 48 h, read-out: MIC): 6.25 µg/mL (≈ 16.7 µM)
- MFC (R. oryzae; NRRL13142, 24 h, R. oryzae type I NRRL13142, 24 h, read-out: MFC): 6.25 µg/mL (≈ 16.7 µM)
- MIC (R. oryzae; NRRL13142, 24 h, R. oryzae type I NRRL13142, 24 h, read-out: MIC): 6.25 µg/mL (≈ 16.7 µM)
- MFC (R. oryzae; NRRL13142, 48 h, R. oryzae type I NRRL13142, 48 h, read-out: MFC): 3.12 µg/mL (≈ 8.36 µM)
- MIC (R. oryzae; NRRL13142, 48 h, R. oryzae type I NRRL13142, 48 h, read-out: MIC): 3.12 µg/mL (≈ 8.36 µM)
- MFC (R. oryzae; NRRL13440, 24 h, R. oryzae type 1 NRRL13440, 24 h, read-out: MFC): 12.5 µg/mL (≈ 33.5 µM)
- MIC (R. oryzae; NRRL13440, 24 h, R. oryzae type 1 NRRL13440, 24 h, read-out: MIC): 1.56 µg/mL (≈ 4.18 µM)
- MFC (R. oryzae; NRRL13440, 48 h, R. oryzae type 1 NRRL13440, 48 h, read-out: MFC): 12.5 µg/mL (≈ 33.5 µM)
- MIC (R. oryzae; NRRL13440, 48 h, R. oryzae type 1 NRRL13440, 48 h, read-out: MIC): 1.56 µg/mL (≈ 4.18 µM)
- MFC (R. oryzae; NRRL13533, 24 h, R. oryzae type I NRRL13533, 24 h, read-out: MFC): 6.25 µg/mL (≈ 16.7 µM)
- MIC (R. oryzae; NRRL13533, 24 h, R. oryzae type I NRRL13533, 24 h, read-out: MIC): 1.56 µg/mL (≈ 4.18 µM)
- MFC (R. oryzae; NRRL13533, 48 h, R. oryzae type I NRRL13533, 48 h, read-out: MFC): 6.25 µg/mL (≈ 16.7 µM)
- MIC (R. oryzae; NRRL13533, 48 h, R. oryzae type I NRRL13533, 48 h, read-out: MIC): 1.56 µg/mL (≈ 4.18 µM)
- MFC (R. oryzae; NRRL18148, 24 h, R. oryzae type II NRRL 18148, 24 h, read-out: MFC): 0.78 µg/mL (≈ 2.09 µM)
- MIC (R. oryzae; NRRL18148, 24 h, R. oryzae type II NRRL 18148, 24 h, read-out: MIC): 0.78 µg/mL (≈ 2.09 µM)
- MFC (R. oryzae; NRRL18148, 48 h, R. oryzae type II NRRL 18148, 48 h, read-out: MFC): 0.78 µg/mL (≈ 2.09 µM)
- MIC (R. oryzae; NRRL18148, 48 h, R. oryzae type II NRRL 18148, 48 h, read-out: MIC): 0.78 µg/mL (≈ 2.09 µM)
- MFC (R. oryzae; NRRL21251, 24 h, R. oryzae type I NRRL 21251, 24 h, read-out: MFC): 6.25 µg/mL (≈ 16.7 µM)
- MIC (R. oryzae; NRRL21251, 24 h, R. oryzae type I NRRL 21251, 24 h, read-out: MIC): 3.12 µg/mL (≈ 8.36 µM)
- MFC (R. oryzae; NRRL21251, 48 h, R. oryzae type I NRRL 21251, 48 h, read-out: MFC): 6.25 µg/mL (≈ 16.7 µM)
- MIC (R. oryzae; NRRL21251, 48 h, R. oryzae type I NRRL 21251, 48 h, read-out: MIC): 6.25 µg/mL (≈ 16.7 µM)
- MFC (R. oryzae; NRRL21396, 24 h, R. oryzae type I NRRL21396, 24 h, read-out: MFC): 12.5 µg/mL (≈ 33.5 µM)
- MIC (R. oryzae; NRRL21396, 24 h, R. oryzae type I NRRL21396, 24 h, read-out: MIC): 12.5 µg/mL (≈ 33.5 µM)
- MFC (R. oryzae; NRRL21396, 48 h, R. oryzae type I NRRL21396, 48 h, read-out: MFC): 6.25 µg/mL (≈ 16.7 µM)
- MIC (R. oryzae; NRRL21396, 48 h, R. oryzae type I NRRL21396, 48 h, read-out: MIC): 1.56 µg/mL (≈ 4.18 µM)
- MFC (R. oryzae; [3]): 1.56 µg/mL (≈ 4.18 µM)
- MIC (R. oryzae; [3]): 1.56 µg/mL (≈ 4.18 µM)
- MFC (R. oryzae; NRRL21446, 24 h, R. oryzae type II NRRL 21446, 24 h, read-out: MFC): 12.5 µg/mL (≈ 33.5 µM)
- MIC (R. oryzae; NRRL21446, 24 h, R. oryzae type II NRRL 21446, 24 h, read-out: MIC): 6.25 µg/mL (≈ 16.7 µM)
- MFC (R. oryzae; NRRL21446, 48 h, R. oryzae type II NRRL 21446, 48 h, read-out: MFC): 6.25 µg/mL (≈ 16.7 µM)
- MIC (R. oryzae; NRRL21446, 48 h, R. oryzae type II NRRL 21446, 48 h, read-out: MIC): 6.25 µg/mL (≈ 16.7 µM)
- MFC (R. oryzae; NRRL21447, 24 h, R. oryzae type II NRRL 21447, 24 h, read-out: MFC): 12.5 µg/mL (≈ 33.5 µM)
- MIC (R. oryzae; NRRL21447, 24 h, R. oryzae type II NRRL 21447, 24 h, read-out: MIC): 6.25 µg/mL (≈ 16.7 µM)
- MFC (R. oryzae; NRRL21447, 48 h, R. oryzae type II NRRL 21447, 48 h, read-out: MFC): 6.25 µg/mL (≈ 16.7 µM)
- MIC (R. oryzae; NRRL21447, 48 h, R. oryzae type II NRRL 21447, 48 h, read-out: MIC): 6.25 µg/mL (≈ 16.7 µM)
- MFC (R. oryzae; NRRL21477, 24 h, R. oryzae type II NRRL 21477, 24 h, read-out: MFC): 1.56 µg/mL (≈ 4.18 µM)
- MIC (R. oryzae; NRRL21477, 24 h, R. oryzae type II NRRL 21477, 24 h, read-out: MIC): 1.56 µg/mL (≈ 4.18 µM)
- MFC (R. oryzae; NRRL21477, 48 h, R. oryzae type II NRRL 21477, 48 h, read-out: MFC): 1.56 µg/mL (≈ 4.18 µM)
- MIC (R. oryzae; NRRL21477, 48 h, R. oryzae type II NRRL 21477, 48 h, read-out: MIC): 1.56 µg/mL (≈ 4.18 µM)
- MFC (R. oryzae; NRRL21628, 24 h, R. oryzae type II NRRL 21628, 24 h, read-out: MFC): 0.78 µg/mL (≈ 2.09 µM)
- MIC (R. oryzae; NRRL21628, 24 h, R. oryzae type II NRRL 21628, 24 h, read-out: MIC): 0.78 µg/mL (≈ 2.09 µM)
- MFC (R. oryzae; NRRL21628, 48 h, R. oryzae type II NRRL 21628, 48 h, read-out: MFC): 0.78 µg/mL (≈ 2.09 µM)
- MIC (R. oryzae; NRRL21628, 48 h, R. oryzae type II NRRL 21628, 48 h, read-out: MIC): 0.78 µg/mL (≈ 2.09 µM)
- MFC (R. oryzae; NRRL21789, 24 h, R. oryzae type II NRRL 21789, 24 h, read-out: MFC): 0.39 µg/mL (≈ 1.04 µM)
- MIC (R. oryzae; NRRL21789, 24 h, R. oryzae type II NRRL 21789, 24 h, read-out: MIC): 0.39 µg/mL (≈ 1.04 µM)
- MFC (R. oryzae; NRRL21789, 48 h, R. oryzae type II NRRL 21789, 48 h, read-out: MFC): 0.39 µg/mL (≈ 1.04 µM)
- MIC (R. oryzae; NRRL21789, 48 h, R. oryzae type II NRRL 21789, 48 h, read-out: MIC): 0.39 µg/mL (≈ 1.04 µM)
- MIC90 (R. oryzae; 24 h): 12.5 µg/mL (≈ 33.5 µM)
- MIC90 (R. oryzae; 48 h): 6.25 µg/mL (≈ 16.7 µM)
- isolates for which deferasirox was cidal (Mucorales; 28/29 isolates): 97%
- MIC (Mucorales; Rhizopus arrhizus, read-out: MIC90s against Mucor, non-oryzae Rhizopus spp., and R. oryzae): 3.12 to 6.25 µg/mL (≈ 8.36 to 16.7 µM)
- dependence of cidality (Mucorales; slight growth within first twelve hours, fungi dead by 24 hours): time-dependent, rather than concentration-dependent
